Assay results as given in patent US8754115B2, “Fungicidal pyrazoles” (E I du Pont de Nemours and Company, priority 2010, dated 2014).
Marks after values point to notes of the source that are not given here.

Legend:
Format in all cases: in vivo
[1] = tested on: Botrytis cinerea; test: Test A: preventive spray on tomato seedlings, visual disease rating (tomato Botrytis)
In short: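 Tomato seedlings sprayed to run-off with 200 ppm suspension (800 g/ha; asterisk marks 40 ppm), inoculated next day with Botrytis cinerea spores, held 48 h saturated at 20 °C then 3 days at 24 °C. Visual rating: 100 = full disease control, 0 = none, relative to controls.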

[2] = tested on: Alternaria solani; test: Test B: preventive spray on tomato seedlings, visual disease rating (tomato early blight)
From the text: (§1) General protocol for preparing test suspensions for Tests A-F: the test compounds were first dissolved in acetone in an amount equal to 3% of the final volume and then suspended at the desired concentration (in ppm) in acetone and purified water (50/50 mix by volume) containing 250 ppm of the surfactant Trem® 014 (polyhydric alcohol esters). The resulting test suspensions were then used in Tests A-F. Spraying a 200 ppm test suspension to the point of run-off on the test plants was the equivalent of a rate of 800 g/ha. Unless otherwise indicated, the rating values indicate a 200 ppm test suspension was used. (An asterisk “*” next to the rating value indicates a 40 ppm test suspension was used.)
(§2) The test suspension was sprayed to the point of run-off on tomato seedlings. The following day the seedlings were inoculated with a spore suspension of Alternaria solani (the causal agent of tomato early blight) and incubated in a saturated atmosphere at 27° C. for 48 h, and then moved to a growth chamber at 20° C. for 5 days, after which time visual disease ratings were made.
(§3) Results for Tests A-F are given in Table A. In the Table, a rating of 100 indicates 100% disease control and a rating of 0 indicates no disease control (relative to the controls). A dash (-) indicates no test results. An asterisk “*” next to the rating value indicates a 40 ppm test suspension was used.

[3] = tested on: Septoria nodorum; test: Test C: preventive spray on wheat seedlings, visual disease rating (Septoria glume blotch)
From the text: as §1
as §2, with “wheat” for “tomato”, “Septoria nodorum” for “Alternaria solani”, “Septoria glume blotch)” for “tomato early blight)”, “24°” for “27°”, “6” for “5”
as §3

[4] = tested on: Septoria tritici; test: Test D: preventive spray on wheat seedlings, visual disease rating (wheat leaf blotch)
In short: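 Wheat seedlings were sprayed to run-off with a 200 ppm suspension (equal to 800 g/ha), or 40 ppm where marked with an asterisk, and inoculated with Septoria tritici spores the next day. Plants were kept at 24 °C in saturated air for 48 h, then at 20 °C for 19 days. Disease control was rated visually from 0 to 100 relative to controls.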

[5] = tested on: Puccinia recondite f. sp. tritici; test: Test E1: curative spray on wheat seedlings after inoculation, visual disease rating (wheat leaf rust)
From the text: as §1
Wheat seedlings were inoculated with a spore suspension of Puccinia recondite f. sp. tritici (the causal agent of wheat leaf rust) and incubated in a saturated atmosphere at 20° C. for 24 h, and then moved to a growth chamber at 20° C. for 2 days. After 2 days, the test suspension was sprayed to the point of run-off on the wheat seedlings, and then the seedlings were moved back to the growth chamber at 20° C. for 6 days. Upon removal, visual disease ratings were made.
as §3

[6] = tested on: Puccinia recondite f. sp. tritici; test: Test E2: preventive spray on wheat seedlings, visual disease rating (wheat leaf rust)
In short: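 Test suspension (acetone 3% of volume, acetone/water 50/50, 250 ppm Trem 014), 200 ppm unless starred (40 ppm), sprayed to run-off on wheat seedlings; inoculated next day with P. recondita spores. 24 h saturated atmosphere at 20 °C, then 7 days at 20 °C; visual rating, 100 = full control vs untreated.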

[7] = tested on: Blumeria graminis f. sp. tritici; test: Test F: preventive spray on wheat seedlings, visual disease rating (wheat powdery mildew)
In short: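 Compound in acetone/water (50/50) with 250 ppm surfactant, sprayed to run-off on wheat seedlings at 200 ppm (≈800 g/ha) or, where marked, 40 ppm. Seedlings dusted with spores the next day, kept 8 days at 20° C., then rated visually as % disease control versus untreated plants.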

[8] = no asterisk: standard test suspension, not 40 ppm, 100 = 100% disease control, 0 = none
[9] = no asterisk: standard test suspension, not 40 ppm
[10] = asterisk: 40 ppm test suspension

Compound | Test A rating (% disease control) [1, 8] [%] | Test B rating (% disease control) [2, 9] [%] | Test C rating (% disease control) [3, 9] [%] | Test D rating (% disease control) [4, 9] [%] | Test E1 rating (% disease control) [5, 9] [%] | Test E2 rating (% disease control) [6, 9] [%] | Test F rating (% disease control) [7, 9] [%] | Test A rating (% disease control) [1, 10] | Test B rating (% disease control) [2, 10] | Test C rating (% disease control) [3, 10] | Test D rating (% disease control) [4, 10] | Test E1 rating (% disease control) [5, 10] | Test E2 rating (% disease control) [6, 10] | Test F rating (% disease control) [7, 10]
3-bromo-5-(2-chloro-4-fluorophenyl)-α-(2,4-difluorophenyl)-1-methyl-1H-pyrazole-4-methanol [Compound 30] | 100 | 0 | 0 | 100 | 100 | 100 | 99 |  |  |  |  |  |  | 
Cc1nn(C)c(-c2c(F)cccc2F)c1C(O)c1ccc(F)cc1Br (stereo not shown) [compound 21] | 99 | 100 | 100 | 100 | 100 | 100 | 98 |  |  |  |  |  |  | 
Cc1nn(C)c(-c2c(F)cccc2F)c1C(O)c1c(F)cc(F)cc1F (stereo not shown) [compound 15] | 100 | 100 | 86 | 100 | 68 | 100 | 100 |  |  |  |  |  |  | 
Cc1nn(C)c(-c2ccc(F)cc2Cl)c1C(O)c1c(F)cc(F)cc1F (stereo not shown) [compound 19] | 99 | 100 | 100 | 100 | 100 | 100 | 100 |  |  |  |  |  |  | 
Cc1nn(C)c(-c2c(F)cccc2Cl)c1C(O)c1ccc(C#N)cc1F (stereo not shown) [compound 38] | 85 | 99 | 100 | 100 | 0 | 100 | 98 |  |  |  |  |  |  | 
α-(2,4-difluorophenyl)-5-(2,4-difluorophenyl)-1,3-dimethyl-1H-pyrazole-4-methanol [Compound 72] | 100 | 0 | 0 | 99 | 0 | 40 | 99 |  |  |  |  |  |  | 
Cc1nn(C)c(-c2ccc(F)cc2Cl)c1C(O)c1ccc(C#N)cc1F (stereo not shown) [compound 25] | 100 | 99 | 89 | 100 | 9 | 100 | 96 |  |  |  |  |  |  | 
Cc1nn(C)c(-c2c(F)cccc2F)c1S(=O)(=O)c1ccc(Cl)cc1 [compound 62] | 0 | 0 | 0 | 0 | 0 | 28 | 94 |  |  |  |  |  |  | 
COc1cc(F)c(C(O)c2c(C)nn(C)c2-c2ccc(F)cc2Cl)c(F)c1 (stereo not shown) [compound 20] |  |  |  |  |  |  |  | 97* % | 97* % | 0* % | 100* % | 99* % | 99* % | 92* %
Cc1nn(C)c(-c2c(F)cccc2Cl)c1C(O)c1c(F)cc(F)cc1F (stereo not shown) [compound 34] | 100 | 99 | 100 | 100 | 84 | 99 | 100 |  |  |  |  |  |  | 
Cc1nn(C)c(-c2ccccc2Br)c1C(O)c1ccc(F)cc1Cl (single isomer, unassigned) [compound 79] | 98 | 0 | 0 | 100 | 53 | 100 | 99 |  |  |  |  |  |  | 
Cc1nn(C)c(-c2c(F)cccc2F)c1Nc1ccc(Cl)cc1Cl [compound 65] | 100 | 0 | 0 | 100 | 9 | 89 | 100 |  |  |  |  |  |  | 
Cc1nn(C)c(-c2c(F)cccc2F)c1C(O)c1ccc(F)cc1Cl (single isomer, unassigned) [compound 87] | 100 |  | 100 |  |  | 99 | 99 |  | 0* % |  | 99* % | 0* % |  | 
Cc1nn(C)c(-c2c(F)cccc2F)c1Nc1ccc(F)cc1Cl [compound 50] | 99 | 93 | 0 | 100 | 0 | 79 | 98 |  |  |  |  |  |  | 
Cc1nn(C)c(-c2ccc(F)cc2Cl)c1Nc1ccc(F)cc1 [compound 41] | 100 | 64 | 0 | 98 | 0 | 41 | 0 |  |  |  |  |  |  | 
Cc1nn(C)c(-c2c(F)cccc2Cl)c1C(=O)c1ccc(Cl)cc1Cl [compound 27] | 0 | 0 | 0 | 0 | 0 | 0 | 81 |  |  |  |  |  |  | 
COc1cc(F)c(C(O)c2c(C)nn(C)c2-c2c(F)cccc2F)c(F)c1 (stereo not shown) [compound 16] | 100 | 99 | 0 | 100 | 54 | 100 | 93 |  |  |  |  |  |  | 
Cc1nn(C)c(-c2c(F)cccc2F)c1Nc1ccc(F)cc1F [compound 64] | 99 | 0 | 0 | 48 | 0 | 55 | 97 |  |  |  |  |  |  | 
Cc1nn(C)c(-c2c(F)cc(F)cc2F)c1C(O)c1ccc(F)cc1Cl (stereo not shown) [compound 61] | 100 | 100 | 99 | 100 | 99 | 100 | 100 |  |  |  |  |  |  | 
